Results: BindingDB's records for PubMed 35124530 (Tsinghua University, 2022)

Test: Antagonist activity at CXCR4 receptor in human SUP-T1 cells assessed as reduction in SDF-1alpha-stimulated cell migration and measured by CellTiter-96 assay

IC50: 236 nM
Compound: N=C(N)NCCC[C@H](NCc1ccccn1)C(=O)NCc1ccc(CNCCCNC2CCCCC2)cc1
